Legend:
FKBP12 = FKBP12 (Homo sapiens (Human), UniProt P62942); assay: SPR assay to determine binding affinity to FKBP12 (direct binding); conditions: immobilized biotinylated avi-FKBP12
Procedure: SPR Assay to Determine Binding Affinity to FKBP12.
Biotinylated avi-FKBP12 was immobilized on a streptavidin chip (Cytiva Series S SA) using a Biacore 8K or 8 k+ (Cytiva). To achieve an immobilization level of 1000 RU, 2 μg/ml biotinylated avi-FKBP12 were injected for 100 sec at a flow rate of 10 μl/min. Rapalogs were diluted in DMSO to 100× working concentration. Each Rapalog was 100-fold diluted in 50 mM HEPES pH 7.5, 150 mM NaCl, 2 mM MgCl2, 1 mM DTT, 0.05% Tween-20 and a serial dilution prepared (9 concentrations, 3-fold dilutions, 0.08-500 nM). […] The compound dilutions were then injected at 100 uL/min for 120 seconds contact time in sequence with increasing concentrations. Dissociation was monitored for 3600 seconds. 50 mM HEPES pH 7.5, 150 mM NaCl, 2 mM MgCl2, 1 mM DTT, 0.05% Tween-20, 1% DMSO was used as running buffer. The single-cycle kinetics data were fit to a 1:1 binding model to measure the association rate ka (1/Ms), the dissociation rate kd (1/s) and the affinity Kd (M).

FKBP51 = FKBP51 (Homo sapiens (Human), UniProt Q13451); assay: SPR assay to determine binding affinity to FKBP51 (direct binding); conditions: immobilized biotinylated avi-FKBP51
Chain of FKBP51 (Q13451 whole entry): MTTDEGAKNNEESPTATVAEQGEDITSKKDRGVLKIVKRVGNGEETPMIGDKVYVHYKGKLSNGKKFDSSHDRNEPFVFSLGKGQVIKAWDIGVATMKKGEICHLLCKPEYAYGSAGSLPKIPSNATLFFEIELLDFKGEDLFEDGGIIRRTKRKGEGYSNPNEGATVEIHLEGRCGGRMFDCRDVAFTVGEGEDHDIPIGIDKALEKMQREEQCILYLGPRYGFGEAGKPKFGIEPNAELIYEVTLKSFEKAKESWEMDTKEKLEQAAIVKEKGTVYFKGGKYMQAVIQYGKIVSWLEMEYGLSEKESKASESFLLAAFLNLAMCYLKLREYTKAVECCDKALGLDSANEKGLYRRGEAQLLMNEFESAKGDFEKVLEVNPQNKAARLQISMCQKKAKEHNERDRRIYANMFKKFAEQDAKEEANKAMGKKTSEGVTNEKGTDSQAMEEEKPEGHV
Procedure: Example 29: SPR Assay to Determine Binding Affinity to FKBP51
Biotinylated avi-FKBP51 was immobilized on a streptavidin chip (Cytiva Series S SA) using a Biacore 8K or 8 k+ (Cytiva). To achieve an immobilization level of 2000 RU, 3 μg/ml biotinylated avi-FKBP51 were injected for 360 sec at a flow rate of 10 μl/min. Rapalogs were diluted in DMSO to 100× working concentration. Each Rapalog was 100-fold diluted in 50 mM HEPES pH 7.5, 150 mM NaCl, 2 mM MgCl2, 1 mM DTT, 0.05% Tween-20 and a serial dilution prepared (8 concentrations, 3-fold dilutions, 0.5-1000 nM). […] The compound dilutions were then injected at 100 uL/min for 120 seconds contact time and with 3600 seconds dissociation time with increasing concentrations. 50 mM HEPES pH 7.5, 150 mM NaCl, 2 mM MgCl2, 1 mM DTT, 0.05% Tween-20, 1% DMSO was used as running buffer. Multi-cycle kinetics data were fit to a 1:1 binding model to measure the association rate ka (1/Ms), the dissociation rate kd (1/s) and the affinity Kd (M).

[1] = target: FKBP12 / FRB ternary complex (Homo sapiens (Human), UniProt P42345+P62942); assay: SPR assay to characterize ternary complex formation with FKBP12 (FRB binding to rapalog-saturated FKBP12); conditions: FRB dilutions with 100 nM rapalog on immobilized FKBP12
Procedure: Example 30: SPR Assay to Characterize Ternary Complex Formation with FKBP12
(§1) Biotinylated avi-FKBP12 was immobilized on a streptavidin chip (Cytiva Series S SA) using a Biacore 8K or 8 k+ (Cytiva). To achieve an immobilization level of 100 RU, 0.3 μg/ml biotinylated avi-FKBP12 were injected for 80 sec at a flow rate of 10 μl/min. Serial dilution of FRB was prepared (12 concentrations, 3-fold dilutions, 0.00011-20 μM) and supplemented with 100 nM of rapalog. A-B-A injection mode was used to ensure saturation immobilized FKBP12 with respective rapalog. 100 nM solution of the respective rapalog was injected before FRB injection for 120 sec and during dissociation for 420 sec. The FRB dilutions were then injected 120 seconds contact time with increasing concentrations. […] 50 mM HEPES pH 7.5, 150 mM NaCl, 2 mM MgCl2, 1 mM DTT, 0.05% Tween-20, 1% DMSO was used as running buffer at a flow rate of 30 μl/min. The multi-cycle kinetics data were fit to a 1:1 binding model to measure the association rate ka (1/Ms), the dissociation rate kd (1/s) and the affinity Kd (M). In case of fast association and dissociation, steady state affinity analysis following the law of mass action was used to determine the affinity Kd (M).

[2] = target: FKBP51 / FRB ternary complex (Homo sapiens (Human), UniProt P42345+Q13451); assay: SPR assay to characterize ternary complex formation with FKBP51 (FRB binding to rapalog-saturated FKBP51); conditions: FRB dilutions with 100 nM rapalog on immobilized FKBP51
Procedure: Example 31: SPR Assay to Characterize Ternary Complex Formation with FKBP51
as §1, with “Biotinylated avi-FKBP51” for “Biotinylated avi-FKBP12”, “of 200” for “of 100”, “RU, 0.6” for “RU, 0.3”, “biotinylated avi-FKBP51” for “biotinylated avi-FKBP12”, “for 150” for “for 80”

mTORC1 = mTORC1 (Homo sapiens (Human), UniProt P42345+P62942); assay: mTORC1 inhibition, AlphaLISA of Phospho-p70 S6 kinase (p70S6K pT389) in PC-3 cells; assay type: cell-based; conditions: inhibition of p70S6K pT389 levels
mTORC2 = mTORC2 (Homo sapiens (Human), UniProt P42345+P62942); assay: mTORC2 inhibition, AlphaLISA of Phospho-AKT (pAKT pS473) in PC3 cells; assay type: cell-based
Procedure: Example 32: mTORC1 Inhibition, mTORC2 Inhibition, Cell Lysis, AlphaLISA Experiments, and Data Analysis
mTORC2 inhibition was determined via analysis of phosphorylation level of Phospho-AKT (pAKT pS473) with the corresponding AlphaLISA kit (PerkinElmer, Alpha SF Ultra™ Multiplex p-AKT1/2/3(Ser473)/Total AKT1). PC3 cells were plated on 96 well plates in assay medium (DMEM: Ham's F12, basic (CLS Cell Lines Service GmbH, Cat #820400a), supplemented with additional 10% FBS at 1.20E+06 cells/mL and incubated over-night at 37° C., 5% CO2. On the following day, cells were treated with assay medium (10% FBS) containing increasing compound concentrations (12 points at 3-fold dilutions) and incubated for 6 hours at 37° C., 5% CO2. Thereafter, medium was aspirated and cells were rinsed with PBS. In the following, cells were treated with compound dilutions in starvation medium (DMEM: Ham's F12, basic; without FBS) for further 18 h at 37° C., 5% CO2. Then, immediately prior to cell lysis, cells were treated with 12% FBS for 15 min.
After performing experiments according to mTORC1 and mTORC2 protocols, cells were harvested in lysis buffer supplied with the AlphaLISA kits, additionally enriched with Roche cOmplete™ Protease Inhibitor Cocktail (Cat #CO-RO). Thus, cells were lysed using 50 μL of the lysis buffer and incubated for 60 min at 4° C. while shaking. After centrifugation at 4000 rpm for 5 min, experiments were performed according to the AlphaLISA manufacturer's protocol.
Ten microliters of cell lysates were mixed with the acceptor mix. After incubation for 2 h at room temperature, the donor mix was added. After additional incubation at room temperature for 2 hours, AlphaLISA signal was read on PHERAstar® FSX (BMG Labtech) with AlphaPLEX module.
EC50 values were calculated by ExcelFit standard algorithm.

Chain of FKBP12 (P62942 whole entry): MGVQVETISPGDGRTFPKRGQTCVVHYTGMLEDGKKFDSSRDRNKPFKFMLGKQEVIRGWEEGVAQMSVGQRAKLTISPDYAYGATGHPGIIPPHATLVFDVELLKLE

Structure (SMILES) | Kd (FKBP12) [nM] | Kd (FKBP51) [nM] | Kd [1] [nM] | Kd [2] [nM] | IC50 (mTORC1) [nM] | mTORC2 % inhibition at 1 uM (mTORC2) | inhibition at 1 µM (mTORC2; PC-3, read-out: mTORC2 % inhibition at 1 uM) [%]
COC1CC(CC(C)C2CC(=O)C(C)C=C(C)C(O)C(OC)C(=O)C(C)CC(C)C=CC=CC=C(C)C(OC3CC3)CC3CCC(C)C(O)(O3)C(=O)C(=O)N3CCCCC3C(=O)O2)CCC1OCCO (stereo not drawn) [Compound 46] | > 1 | > 100 | 300 to 800 | 300 to 800 | 0.1 to 0.8 | B (B>20% and less than 40% inhibition at 1 uM) | –
CO[C@@H]1C[C@H](C[C@@H](C)[C@@H]2CC(=O)[C@H](C)/C=C(\C)[C@@H](O)[C@@H](OC)C(=O)[C@H](C)C[C@H](C)/C=C/C=C/C=C(\C)[C@H](OCC3CCC3)C[C@@H]3CC[C@@H](C)[C@@](O)(O3)C(=O)C(=O)N3CCCC[C@H]3C(=O)O2)CC[C@H]1OCCCS(C)(=O)=O [Compound 63] | > 1 | – | 300 to 800 | > 800 | > 0.8 | C (C≥40% and less than 60% inhibition at 1 uM) | –
COC1C(=O)C(C)CC/C=C/C=C/C=C(\C)C(NS(=O)(=O)CCCS(=O)(=O)O)C[C@H]2CC[C@H](C)[C@](O)(O2)C(=O)C(=O)N(C)C(C)C(=O)OC([C@H](C)C[C@@H]2CC[C@@H](OC3CC3)[C@H](OC)C2)CC(=O)C(C)/C=C(\C)C1O (stereo partly drawn) [Compound 18] | 0.3 to 1 | 10 to 100 | 300 to 800 | 300 to 800 | 0.1 to 0.8 | A (A ≤20% inhibition at 1 micro Molar (uM)) | –
COC1CC(CC(C)C2CC(=O)C(C)C=C(C)C(O)C(OC)C(=O)C(C)CC(C)C=CC=CC=C(C)C(OCC3CCCC3)CC3CCC(C)C(O)(O3)C(=O)C(=O)N3CCCCC3C(=O)O2)CCC1O (stereo not drawn) [Compound 40] | > 1 | > 100 | 300 to 800 | > 800 | 0.1 to 0.8 | A (A ≤20% inhibition at 1 micro Molar (uM)) | –
COCCOCCS(=O)(=O)NC1CC2CCC(C)C(O)(O2)C(=O)C(=O)N2CCCCC2C(=O)OC(C(C)CC2CCC(OCCCS(C)(=O)=O)C(OC)C2)CC(=O)C(C)C=C(C)C(O)C(OC)C(=O)C(C)CC(C)C=CC=CC=C1C (mixture of isomers) [Compound 4] | < 0.3 | 10 to 100 | < 300 | 300 to 800 | < 0.1 | A (A ≤20% inhibition at 1 micro Molar (uM)) | –
COC1CC(CC(C)C2CC(=O)C(C)C=C(C)C(O)C(OC)C(=O)C(C)CC(C)C=CC=CC=C(C)C(NS(=O)(=O)C3CC3)CC3CCC(C)C(O)(O3)C(=O)C(=O)N3CCCCC3C(=O)O2)CCC1O (mixture of isomers) [Compound 1] | > 1 | 10 to 100 | 300 to 800 | < 300 | 0.1 to 0.8 | A (A ≤20% inhibition at 1 micro Molar (uM)) | –
COCCOC1CC2CCC(C)C(O)(O2)C(=O)C(=O)N2CCCCC2C(=O)OC(C(C)CC2CCC(OCC(=O)O)C(OC)C2)CC(=O)C(C)C=C(C)C(O)C(OC)C(=O)C(C)CC(C)C=CC=CC=C1C (stereo not drawn) [Compound 57] | > 1 | 10 to 100 | 300 to 800 | > 800 | > 0.8 | B (B>20% and less than 40% inhibition at 1 uM) | –
COCCOCCS(=O)(=O)NC1CC2CCC(C)C(O)(O2)C(=O)C(=O)N2CCCCC2C(=O)OC(C(C)CC2CCC(OCCCO)C(OC)C2)CC(=O)C(C)C=C(C)C(O)C(OC)C(=O)C(C)CC(C)C=CC=CC=C1C (stereo not drawn) [Compound 3] | 0.3 to 1 | > 100 | > 800 | > 800 | > 0.8 | A (A ≤20% inhibition at 1 micro Molar (uM)) | –
CCOC(=O)CS(=O)(=O)NC1C[C@H]2CC[C@H](C)[C@](O)(O2)C(=O)C(=O)N(C)C(C)C(=O)OC([C@H](C)C[C@@H]2CC[C@@H](OC3CC3)[C@H](OC)C2)CC(=O)C(C)/C=C(\C)C(O)C(OC)C(=O)C(C)CC/C=C/C=C/C=C/1C (stereo partly drawn) [Compound 12] | 0.3 to 1 | 10 to 100 | 300 to 800 | 300 to 800 | > 0.8 | A (A ≤20% inhibition at 1 micro Molar (uM)) | –
CO[C@H]1C[C@@H]2CC[C@@H](C)[C@@](O)(O2)C(=O)C(=O)N2CCCC[C@H]2C(=O)O[C@H]([C@H](C)C[C@@H]2CC[C@@H](O)[C@H](OC)C2)CC(=O)[C@H](C)/C=C(\C)[C@@H](O)[C@@H](OC)C(=O)[C@H](C)C[C@H](C)/C=C/C=C/C=C/1C [Rapamycin, reference compound] | – | < 10 | – | – | – | – | ≥ 60
COC1CC(CC(C)C2CC(=O)C(C)C=C(C)C(O)C(OC)C(=O)C(C)CC(C)C=CC=CC=C(C)C(OCC3CCC3)CC3CCC(C)C(O)(O3)C(=O)C(=O)N3CCCCC3C(=O)O2)CCC1O (stereo not drawn) [Compound 37] | > 1 | – | 300 to 800 | > 800 | > 0.8 | B (B>20% and less than 40% inhibition at 1 uM) | –

Reference: US11603377B2, “MTORC1 modulators and uses thereof” (Aeovian Pharmaceuticals, Inc., priority 2020, dated 2023)
